Laboratory results: US5380761A, “Transdermal compositions” (Chinoin Gyogyszer- ES Vegyeszeti Termekek Gyara RT., priority 1991, dated 1995)

Test system: MAO-A
Assay: MAO-A inhibition in domestic pig brain nucleus free homogenate (14C-5-HT substrate)
Format: in vivo
Conditions: p. os 10 mg, 96 h
Description: In further experiments we determined in domestic pigs The MAO activity in the brain and the platelet MAO-B activity.
The experiments were carried out on female (big white) domestic pigs, weighing 25-30 kg. The pigs were caged separately during the experiments, and the same food was supplied, which was used formerly.
Blood samples were taken for the determination of MAO-B activity at: 0, 3, 6, 24, 48, 72 and 96 h. At 96 h after blood sampling the pigs were killed and the MAO-B and MAO-A activity was determined in their dissected brain.
The times of blood sampling were at: 0, 3, 6, 24 and 48 h. The transdermal preparations were removed at 24 h. […] The pigs were killed at 48 h and MAO-A and MAO-B activity of the brain was determined.
Blood samples were taken at: 0, 3, 6, 24, 48 and 72 h. The patches were removed at 48 h and the whole procedure described at group 2 was accomplished.
MAO activity was measured radiometrically according to the methods of Wurtman and Axelrod (Biochem. Pharmacol. 12. 1414-19; 1963) with a slight modification (K. Magyar in: Monoamine Oxidases and their Selective Inhibition. Ed.: K. Magyar, Pergamon Press, Akademiai Kiado, Budapest 11-21; 1980).

C#CCN(C)[C@H](C)Cc1ccccc1 [(-)-Deprenyl]
inhibition of MAO-activity (%) as compared to the control, brain, 14C-5-HT: 20.14 ± 6.0%
